Measured values from publication PMC4832243, “Discovery of Potent VEGFR-2 Inhibitors based on Furopyrimidine and Thienopyrimidne Scaffolds as Cancer Targeting Agents” (Scientific Reports, 2016).

Tests used:
[1] = tested on: MALME-3M; experiment: NCI 60 cell line panel (SRB), MALME-3M; type: cell-based; conditions: Homo sapiens, Melanoma, single dose of 10 μM, read-out: Cell Growth Percent
[2] = tested on: K-562; experiment: NCI 60 cell line panel (SRB), K-562; type: cell-based; conditions: Homo sapiens, K562; K-562, Leukemia; single dose of 10 μM; read-out: Cell Growth Percent
[3] = tested on: BT-549; experiment: NCI 60 cell line panel (SRB), BT-549; type: cell-based; conditions: Homo sapiens; BT-549, Breast Cancer; single dose of 10 μM; read-out: Cell Growth Percent
[4] = tested on: SK-OV-3; experiment: NCI 60 cell line panel (SRB), SK-OV-3; type: cell-based; conditions: Homo sapiens; SK-OV-3, Ovarian Cancer; single dose of 10 μM; read-out: Cell Growth Percent
[5] = tested on: IGROV1; experiment: NCI 60 cell line panel (SRB), IGROV1; type: cell-based; conditions: Homo sapiens, IGROV-1; IGROV1, Ovarian Cancer; single dose of 10 μM; read-out: Cell Growth Percent
[6] = tested on: RXF 393; experiment: NCI 60 cell line panel (SRB), RXF 393; type: cell-based; conditions: Homo sapiens; RXF 393, Renal Cancer; single dose of 10 μM; read-out: Cell Growth Percent
[7] = tested on: TK-10; experiment: NCI 60 cell line panel (SRB), TK-10; type: cell-based; conditions: Homo sapiens; TK-10, Renal Cancer; single dose of 10 μM; read-out: Cell Growth Percent
[8] = tested on: 786-0; experiment: NCI 60 cell line panel (SRB), 786-0; type: cell-based; conditions: Homo sapiens; 786-0, Renal Cancer; single dose of 10 μM; read-out: Cell Growth Percent
[9] = tested on: NCI/ADR-RES; experiment: NCI 60 cell line panel (SRB), NCI/ADR-RES; type: cell-based; conditions: Homo sapiens, Ovarian Cancer, single dose of 10 μM, read-out: Cell Growth Percent
[10] = tested on: KM12; experiment: NCI 60 cell line panel (SRB), KM12; type: cell-based; conditions: Homo sapiens; KM12, Colon Cancer; single dose of 10 μM; read-out: Cell Growth Percent
[11] = tested on: SF-268; experiment: NCI 60 cell line panel (SRB), SF-268; type: cell-based; conditions: Homo sapiens; SF-268, CNS Cancer; single dose of 10 μM; read-out: Cell Growth Percent
[12] = tested on: A498; experiment: NCI 60 cell line panel (SRB), A498; type: cell-based; conditions: Homo sapiens; A498, Renal Cancer; single dose of 10 μM; read-out: Cell Growth Percent
[13] = tested on: UACC-62; experiment: NCI 60 cell line panel (SRB), UACC-62; type: cell-based; conditions: Homo sapiens; UACC-62, Melanoma; single dose of 10 μM; read-out: Cell Growth Percent
[14] = target: T1, VEGFR-2 (KDR) (Homo sapiens, UniProt P35968); experiment: In vitro VEGFR-2 tyrosine kinase activity (Kinase-Glo Plus luminescence, BPS Bioscience); type: biochemical; conditions: for IC50: 5 concentrations 1 nM - 10 μM
T1 construct: purchased BPS Bioscience 40301

[15] = tested on: CCRF-CEM; experiment: NCI 60 cell line panel (SRB), CCRF-CEM; type: cell-based; conditions: Homo sapiens, Leukemia, single dose of 10 μM, read-out: Cell Growth Percent
[16] = tested on: HCT-116; experiment: NCI 60 cell line panel (SRB), HCT-116; type: cell-based; conditions: Homo sapiens; HCT-116, Colon Cancer; single dose of 10 μM; read-out: Cell Growth Percent
[17] = tested on: MDA-MB-468; experiment: NCI 60 cell line panel (SRB), MDA-MB-468; type: cell-based; conditions: Homo sapiens; MDA-MB-468, Breast Cancer; single dose of 10 μM; read-out: Cell Growth Percent
[18] = tested on: OVCAR-3; experiment: NCI 60 cell line panel (SRB), OVCAR-3; type: cell-based; conditions: Homo sapiens; OVCAR-3, Ovarian Cancer; single dose of 10 μM; read-out: Cell Growth Percent
[19] = tested on: HUVEC umbilical vein endothelial cells; experiment: In vitro HUVEC anti-proliferative assay (alamarBlue); type: cell-based; conditions: Homo sapiens, HUVEC proliferation at 10 μM, 72 hours; for activity at 10 µM: read-out: % Cell growth; for inhibition at 10 µM: read-out: % Cell inhibition
[20] = tested on: NCI-H322M; experiment: NCI 60 cell line panel (SRB), NCI-H322M; type: cell-based; conditions: Homo sapiens, Non-Small Cell Lung Cancer, single dose of 10 μM, read-out: Cell Growth Percent
[21] = tested on: MOLT-4; experiment: NCI 60 cell line panel (SRB), MOLT-4; type: cell-based; conditions: Homo sapiens; MOLT-4, Leukemia; single dose of 10 μM; read-out: Cell Growth Percent
[22] = tested on: HOP-92; experiment: NCI 60 cell line panel (SRB), HOP-92; type: cell-based; conditions: Homo sapiens; HOP-92, Non-Small Cell Lung Cancer; single dose of 10 μM; read-out: Cell Growth Percent
[23] = tested on: SF-539; experiment: NCI 60 cell line panel (SRB), SF-539; type: cell-based; conditions: Homo sapiens; SF-539, CNS Cancer; single dose of 10 μM; read-out: Cell Growth Percent
[24] = tested on: NCI-H23; experiment: NCI 60 cell line panel (SRB), NCI-H23; type: cell-based; conditions: Homo sapiens; NCI-H23, Non-Small Cell Lung Cancer; single dose of 10 μM; read-out: Cell Growth Percent

T1 sequence (P35968 20-1356): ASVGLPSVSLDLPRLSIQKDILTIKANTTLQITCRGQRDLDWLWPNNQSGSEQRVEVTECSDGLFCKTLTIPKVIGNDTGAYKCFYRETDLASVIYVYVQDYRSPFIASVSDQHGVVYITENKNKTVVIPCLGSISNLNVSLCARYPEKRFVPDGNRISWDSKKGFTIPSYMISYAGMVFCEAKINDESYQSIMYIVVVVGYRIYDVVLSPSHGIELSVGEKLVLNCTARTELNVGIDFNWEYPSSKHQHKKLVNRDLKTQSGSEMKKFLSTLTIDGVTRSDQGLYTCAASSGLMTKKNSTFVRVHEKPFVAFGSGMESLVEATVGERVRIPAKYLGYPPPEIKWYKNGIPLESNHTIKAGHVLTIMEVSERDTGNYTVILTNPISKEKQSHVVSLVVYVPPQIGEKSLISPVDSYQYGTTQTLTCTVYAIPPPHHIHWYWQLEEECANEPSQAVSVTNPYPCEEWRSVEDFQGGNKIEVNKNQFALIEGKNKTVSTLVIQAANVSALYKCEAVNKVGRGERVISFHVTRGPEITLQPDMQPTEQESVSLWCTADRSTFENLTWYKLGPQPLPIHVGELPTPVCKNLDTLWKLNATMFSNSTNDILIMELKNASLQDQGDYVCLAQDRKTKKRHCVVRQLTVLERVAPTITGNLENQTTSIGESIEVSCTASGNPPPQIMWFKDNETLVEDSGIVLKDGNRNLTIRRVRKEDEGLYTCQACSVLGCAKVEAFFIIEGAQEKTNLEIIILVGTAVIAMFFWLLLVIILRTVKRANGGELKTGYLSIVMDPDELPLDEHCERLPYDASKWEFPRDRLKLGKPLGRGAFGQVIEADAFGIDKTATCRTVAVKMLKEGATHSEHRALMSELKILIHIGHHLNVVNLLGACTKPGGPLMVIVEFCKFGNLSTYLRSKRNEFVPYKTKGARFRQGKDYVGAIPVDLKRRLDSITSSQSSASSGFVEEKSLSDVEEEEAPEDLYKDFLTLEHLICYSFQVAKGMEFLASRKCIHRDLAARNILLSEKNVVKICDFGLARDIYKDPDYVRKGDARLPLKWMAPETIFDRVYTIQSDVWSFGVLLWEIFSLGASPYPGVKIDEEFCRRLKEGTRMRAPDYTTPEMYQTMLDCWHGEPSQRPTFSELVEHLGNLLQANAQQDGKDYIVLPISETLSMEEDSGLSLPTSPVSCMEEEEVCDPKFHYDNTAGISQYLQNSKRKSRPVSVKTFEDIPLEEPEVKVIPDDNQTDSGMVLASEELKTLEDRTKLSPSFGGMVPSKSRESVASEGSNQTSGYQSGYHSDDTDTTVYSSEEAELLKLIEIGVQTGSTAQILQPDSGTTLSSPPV

SMILES | activity at 10 µM [1] | activity at 10 µM [2] | activity at 10 µM [3] | activity at 10 µM [4] | activity at 10 µM [5] | activity at 10 µM [6] | activity at 10 µM [7] | activity at 10 µM [8] | activity at 10 µM [9] | activity at 10 µM [10] | activity at 10 µM [11] | activity at 10 µM [12] | activity at 10 µM [13] | IC50 [14] | activity at 10 µM [15] | activity at 10 µM [16] | activity at 10 µM [17] | activity at 10 µM [18] | activity at 10 µM [19] | inhibition at 10 µM [19] | other results
COc1cccc(NC(=O)Nc2ccc(Oc3ncnc4sc5c(c34)CCCC5)cc2)c1 [Compound 21c] | 88.5% | 64.6% | 88.5% | 78.2% | 88.7% | 74% | 73.5% | 97.6% | 70.5% | 27.5% | 72% | 67.8% | 70.9% | 47 nM | 64.4% | 55.8% | 69.3% | 68.3% | 20.9% | 79.2% | activity at 10 µM [20]: 95.8%; activity at 10 µM [21]: 46.9%; activity at 10 µM [22]: 79%; activity at 10 µM [23]: 53%; activity at 10 µM [24]: 67.7%
Cc1cccc(NC(=O)Nc2ccc(Oc3ncnc4sc5c(c34)CCCC5)cc2)c1 [Compound 21b] | 104% | 57.9% | 71.9% | 79.7% | 89% | 79% | 72.5% | 87% | 71.5% | 37.3% | 72.6% | 68.3% | 75.7% | 33.4 nM | 70% | 62.1% | 87.2% | 63.5% | 18% | 82% | activity at 10 µM [20]: 91.2%; activity at 10 µM [21]: 58.1%; activity at 10 µM [22]: 80.9%; activity at 10 µM [23]: 59.3%; activity at 10 µM [24]: 72.4%
O=C(Nc1ccccc1)Nc1ccc(Oc2ncnc3sc4c(c23)CCCC4)cc1 [Compound 21a] | 84.2% | 26.1% | 63.8% | 72.2% | 87.2% | 72% | 86.1% | 84.8% | 63.2% | 46.4% | 76.3% | 56.7% | 66.5% | 454 nM | 64.9% | 67.4% | 53.6% | 74.9% | 35.7% | 64.3% | inhibition at 10 µM ([14]; single dose concentration of 10 μM): > 70%; activity at 10 µM [20]: 99.7%; activity at 10 µM [21]: 54%; activity at 10 µM [22]: 78.4%; activity at 10 µM [23]: 44%; activity at 10 µM [24]: 66.4%
